Data: patent publication US10173991B2, “Sulfone amide linked benzothiazole inhibitors of endothelial lipase” (BRISTOL-MYERS SQUIBB COMPANY, priority 2014, dated 2019)
Read-outs that look alike come from different tables or passages of the source.

Molecular target: Endothelial lipase (EL) (Homo sapiens (Human), UniProt Q9Y5X9)
Assay: Endothelial lipase (EL) enzymatic assay with fluorescent substrate A10070 in DMPG vesicles
Type: biochemical
How it was run: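 Vesicles prepared: A10070 dried with DMPG, resuspended in HEPES pH 8.0/NaCl/EDTA, sonicated on ice. Enzyme incubated with compound 30 min at 37° C. Reaction started with 1:10 diluted vesicles. Fluorescence (490/530 nm) followed 60 min; slope from 300–900 secs gives rate.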

Sequence of Endothelial lipase (EL) (Q9Y5X9 21-500): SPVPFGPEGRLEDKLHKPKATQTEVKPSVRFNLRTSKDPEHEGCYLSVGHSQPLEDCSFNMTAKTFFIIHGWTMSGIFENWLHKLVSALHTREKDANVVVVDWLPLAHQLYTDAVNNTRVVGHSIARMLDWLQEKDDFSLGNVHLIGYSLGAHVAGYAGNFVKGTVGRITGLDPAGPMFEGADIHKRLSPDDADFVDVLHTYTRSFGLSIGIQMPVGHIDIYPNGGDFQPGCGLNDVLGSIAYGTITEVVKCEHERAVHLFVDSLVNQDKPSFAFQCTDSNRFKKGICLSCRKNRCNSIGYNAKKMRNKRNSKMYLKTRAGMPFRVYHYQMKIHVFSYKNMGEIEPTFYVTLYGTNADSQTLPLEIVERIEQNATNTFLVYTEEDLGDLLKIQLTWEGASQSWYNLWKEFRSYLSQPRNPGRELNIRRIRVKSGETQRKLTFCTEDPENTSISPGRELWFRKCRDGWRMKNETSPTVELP

Row | Structure (SMILES) | IC50 [nM] | IC50 (EL from conditioned media of HT-1080 cells, 30 min preincubation at 37° C.) [nM]
1 | Cc1cc(-c2cc3nc(C(C(=O)NCC(=O)NC4CC4)S(=O)(=O)C(C)C)sc3cc2F)cnn1 (stereo not drawn) [Example 271, N-[(cyclopropyl-carbamoyl)methyl]-2-[6-fluoro-5-(6-methylpyridazin-4-yl)-1,3-benzothiazol-2-yl]-2-(propane-2-sulfonyl)acetamide] | 45 | 
2 | COCCS(=O)(=O)C(C(=O)NCC(=O)NC1CC1)c1nc2cc(F)c(-c3ccc(NC(=O)OC)cc3C)cc2s1 (stereo not drawn) [Example 35, methyl N-{4-[2-({[(cyclopropyl-carbamoyl)methyl]carbamoyl}(2-methoxyethane-sulfonyl)methyl)-5-fluoro-1,3-benzothiazol-6-yl]-3-methylphenyl} carbamate] | 8 | 
3 | COCCS(=O)(=O)C(C(=O)NCC(=O)NC1CC1)c1nc2ccc(-c3ccc(C4CC4)nc3)cc2s1 (stereo not drawn) [Example 300, N-[(cyclopropyl-carbamoyl)methyl]-2-[6-(6-cyclopropyl-pyridin-3-yl)-1,3-benzothiazol-2-yl]-2-(2-methoxyethane-sulfonyl)acetamide] | 125 | 
4 | Cn1cnc2ccc(-c3cc4sc(C(C(=O)NCC(=O)NC5CC5)S(C)(=O)=O)nc4cc3F)cc21 (stereo not drawn) [Example 369, N-[(cyclopropyl-carbamoyl)methyl]-2-[5-fluoro-6-(1-methyl-1H-1,3-benzodiazol-6-yl)-1,3-benzothiazol-2-yl]-2-methanesulfonyl-acetamide] | 16 | 
5 | COCCS(=O)(=O)C(C(=O)NCC(=O)NC1CC1)c1nc2ccc(-c3ccccc3)cc2s1 (stereo not drawn) [Example 305, N-[(cyclopropyl-carbamoyl)methyl]-2-(2-methoxyethane-sulfonyl)-2-(6-phenyl-1,3-benzothiazol-2-yl) acetamide] | 7 | 
6 | O=C(CNC(=O)C(c1nc2cc(F)c(-c3cnc(-n4cccn4)nc3)cc2s1)S(=O)(=O)CCC(F)(F)F)NC1CC1 (stereo not drawn) [Example 584, N-[(cyclopropyl-carbamoyl)methyl]-2-{5-fluoro-6-[2-(1H-pyrazol-1-yl)pyrimidin-5-yl]-1,3-benzothiazol-2-yl}-2-(3,3,3-trifluoropropane-sulfonyl)acetamide] | 64 | 
7 | O=C(CNC(=O)C(c1nc2ccc(-c3cccnc3F)cc2s1)S(=O)(=O)Cc1ccc(F)cc1)NC1CC1 (stereo not drawn) [Example 229, N-[(cyclopropyl-carbamoyl)methyl]-2-[(4-fluorophenyl)methanesulfonyl]-2-[6-(2-fluoropyridin-3-yl)-1,3-benzothiazol-2-yl]acetamide] | 150 | 
8 | CC(C)S(=O)(=O)C(C(=O)NCC(=O)NC1CC1)c1nc2cc(F)c(-c3ccc4cnn(C)c4c3)cc2s1 (stereo not drawn) [Example 237, N-[(cyclopropyl-carbamoyl)methyl]-2-[5-fluoro-6-(1-methyl-1H-indazol-6-yl)-1,3-benzothiazol-2-yl]-2-(propane-2-sulfonyl) acetamide] | 5 | 
9 | O=C(CNC(=O)C(c1nc2cc(F)c(-c3cccn(Cc4ccccc4)c3=O)cc2s1)S(=O)(=O)CCC(F)(F)F)NC1CC1 (stereo not drawn) [Example 591, 2-[6-(1-Benzyl-2-oxo-1,2-dihydropyridin-3-yl)-5-fluoro-1,3-benzothiazol-2-yl]-N-[(cyclopropylcarbamoyl)methyl]-2-(3,3,3-trifluoropropanesulfonyl)acetamide] |  | 268
10 | CS(=O)(=O)C(C(=O)NCC(=O)NC1CC1)c1nc2cc(OC(F)F)c(-c3ccc(F)nc3)cc2s1 (stereo not drawn) [Example 602, N-[(cyclopropyl-carbamoyl)methyl]-2-[5-(difluoromethoxy)-6-(6-fluoropyridin-3-yl)-1,3-benzothiazol-2-yl]-2-methanesulfonyl-acetamide] | 18 | 
11 | CC(C)(C)OC(=O)N1CC(S(=O)(=O)C(C(=O)NCC(=O)NC2CC2)c2nc3ccc(-c4ccc(F)nc4)cc3s2)C1 (stereo not drawn) [Example 227, tert-butyl 3-({[(cyclopropyl-carbamoyl)methyl]carbamoyl}[6-(6-fluoropyridin-3-yl)-1,3-benzothiazol-2-yl]methanesulfonyl) azetidine-1-carboxylate] | 103 | 
12 | CC(C)n1cc(-c2cc3sc(C(C(=O)NCC(=O)NC4CC4)S(C)(=O)=O)nc3cc2OC(F)F)ccc1=O (stereo not drawn) [Example 606] | 4 | 
13 | N#CCCNC(=O)c1ccc(-c2cc3sc(C(C(=O)NCC(=O)NC4CC4)S(=O)(=O)CCC(F)(F)F)nc3cc2F)cc1 (stereo not drawn) [Example 44, N-(2-cyanoethyl)-4-[2-({[(cyclopropyl-carbamoyl)methyl]carbamoyl}(3,3,3-trifluoropropane-sulfonyl)methyl)-5-fluoro-1,3-benzothiazol-6-yl] benzamide] | 3 | 
14 | CN(C)S(=O)(=O)C(C(=O)NCC(=O)NC1CC1)c1nc2cc(F)c(-c3ccc(-c4ccccc4)nc3)cc2s1 (stereo not drawn) [Example 507, N-[(cyclopropyl-carbamoyl)methyl]-2-(dimethyl-sulfamoyl)-2-[5-fluoro-6-(6-phenylpyridin-3-yl)-1,3-benzothiazol-2-yl]acetamide] | 16 | 
15 | CS(=O)(=O)C(C(=O)NCC(=O)NC1CC1)c1nc2cc(F)c(-c3cccc4c3CC(=O)N4)cc2s1 (stereo not drawn) [Example 371, N-[(cyclopropyl-carbamoyl)methyl]-2-[5-fluoro-6-(2-oxo-2,3-dihydro-1H-indol-4-yl)-1,3-benzothiazol-2-yl]-2-methanesulfonyl-acetamide] | 5 | 
16 | COCCS(=O)(=O)C(C(=O)NCC(=O)NC1CC1)c1nc2cc(-c3cccc(C(=O)N4CCC(F)(F)C4)c3)ccc2s1 (stereo not drawn) [Example 396, N-[(cyclopropyl-carbamoyl)methyl]-2-{5-[3-(3,3-difluoro-pyrrolidine-1-carbonyl)phenyl]-1,3-benzothiazol-2-yl}-2-(2-methoxyethane-sulfonyl)acetamide] | 8 | 
17 | COCCS(=O)(=O)C(C(=O)NCC(=O)NC1CC1)c1nc2cc(-c3cnc(F)cc3C)ccc2s1 (stereo not drawn) [Example 81, N-[(cyclopropyl-carbamoyl)methyl]-2-[5-(6-fluoro-4-methylpyridin-3-yl)-1,3-benzothiazol-2-yl]-2-(2-methoxyethane-sulfonyl) acetamide] | 58 | 
18 | CC(C)Oc1ccc(-c2cc3sc(C(C(=O)NCC(=O)NC4CC4)S(=O)(=O)C(C)C)nc3cc2F)cn1 (stereo not drawn) [Example 235, N-[(cyclopropyl-carbamoyl)methyl]-2-{5-fluoro-6-[6-(propan-2-yloxy)pyridin-3-yl]-1,3-benzothiazol-2-yl}-2-(propane-2-sulfonyl) acetamide] | 6 | 
19 | O=C(CNC(=O)C(c1nc2ccc(-c3cccnc3F)cc2s1)S(=O)(=O)N1CCOCC1)NC1CC1 (stereo not drawn) [Example 482, N-[(cyclopropyl-carbamoyl)methyl]-2-[6-(2-fluoropyridin-3-yl)-1,3-benzothiazol-2-yl]-2-(morpholine-4-sulfonyl)acetamide] | 173 | 
20 | CC(C)S(=O)(=O)C(C(=O)NCC(=O)NC1CC1)c1nc2cc(F)c(-c3ccc(C4CC4)nc3)cc2s1 (stereo not drawn) [Example 241, N-[(cyclopropyl-carbamoyl)methyl]-2-[6-(6-cyclopropyl-pyridin-3-yl)-5-fluoro-1,3-benzothiazol-2-yl]-2-(propane-2-sulfonyl) acetamide] | 17 | 
21 | CS(=O)(=O)C(C(=O)NCC(=O)NC1CC1)c1nc2cc(F)c(-c3ccnc(C(F)(F)F)c3)cc2s1 (stereo not drawn) [Example 325, N-[(cyclopropyl-carbamoyl)methyl]-2-{5-fluoro-6-[2-(trifluoromethyl)pyridin-4-yl]-1,3-benzothiazol-2-yl}-2-methanesulfonyl-acetamide] | 15 | 
